Measured values reported in US20260308149A1, “NOVEL CARBOXAMIDE DERIVATIVES” (ANGELINI PHARMA S.P.A., priority 2023, published 2026).

Molecular target: T1, human Kv7.2 (Homo sapiens, UniProt O43526)
T1 construct: expressed in transfected cells
Assay: activation (potentiation) of Kv7.2 current, SyncroPatch 384 electrophysiology in CHO cells stably expressing human Kv7.2
Type: cell-based
Conditions: human Kv7.2 in CHO cells; in presence of 5.6 μM zinc pyrithione; % activation relative to 30 μM ML-213
Outline: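 CHO cells stably expressing human Kv7.2 were recorded by automated patch clamp, holding at −60 mV with steps to −30, 40 and −90 mV; current was read at the −90 mV step. Compounds were added after 5.6 μM zinc pyrithione pre-activation. % activation was normalised between 30 μM ML-213 (max) and TEA+XE-991 (leak), with EC50 from a logistic fit.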

T1 sequence (O43526 whole entry): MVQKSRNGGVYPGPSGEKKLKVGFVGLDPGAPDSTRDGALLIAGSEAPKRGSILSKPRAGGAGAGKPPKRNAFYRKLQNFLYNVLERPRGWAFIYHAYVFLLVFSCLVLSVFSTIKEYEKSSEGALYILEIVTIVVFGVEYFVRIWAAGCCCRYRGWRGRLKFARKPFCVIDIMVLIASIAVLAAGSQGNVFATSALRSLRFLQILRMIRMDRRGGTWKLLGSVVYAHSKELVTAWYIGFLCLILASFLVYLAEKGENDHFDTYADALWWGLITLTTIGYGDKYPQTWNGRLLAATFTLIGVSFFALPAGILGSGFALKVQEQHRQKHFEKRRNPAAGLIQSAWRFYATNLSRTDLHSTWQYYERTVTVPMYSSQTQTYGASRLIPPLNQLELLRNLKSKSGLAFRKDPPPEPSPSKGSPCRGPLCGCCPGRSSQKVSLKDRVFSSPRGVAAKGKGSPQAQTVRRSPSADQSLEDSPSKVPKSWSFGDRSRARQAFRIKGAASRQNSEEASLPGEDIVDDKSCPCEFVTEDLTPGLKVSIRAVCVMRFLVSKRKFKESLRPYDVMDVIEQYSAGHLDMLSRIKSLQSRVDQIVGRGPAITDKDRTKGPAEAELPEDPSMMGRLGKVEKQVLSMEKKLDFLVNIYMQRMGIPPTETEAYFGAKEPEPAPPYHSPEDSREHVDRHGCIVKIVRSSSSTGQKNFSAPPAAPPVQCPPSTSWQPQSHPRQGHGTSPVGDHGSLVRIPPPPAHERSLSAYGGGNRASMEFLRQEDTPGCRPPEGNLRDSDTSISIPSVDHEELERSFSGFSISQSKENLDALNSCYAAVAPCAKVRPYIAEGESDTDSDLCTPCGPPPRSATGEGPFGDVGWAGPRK

Row | SMILES | EC50
1 | O=C(NCC(OC1CCC1)c1cccc(Cl)c1)NC1C[C@H]2CC[C@@H]1C2 (mixture of isomers) [Example 46, 1-[2-(3-chlorophenyl)-2-(cyclobutoxy)ethyl]-3-[rac-(1R,4S)-norbornan-2-yl]urea] | 3350 nM
2 | CC(F)(F)[C@H]1C[C@@H]1C(=O)NC[C@@]1(c2cccc(C#N)c2)CCO1 (mixture of isomers) [Example 113, (1SR,2SR)—N-[[(2S)-2-(3-cyanophenyl)oxetan-2-yl]methyl]-2-(1,1-difluoroethyl)cyclopropanecarboxamide] | 2180 nM
3 | O=C(NCC(OCC(F)(F)F)c1cccc(Cl)c1)NC1C[C@H]2CC[C@@H]1C2 (mixture of isomers) [Example 45, 1-[2-(3-chlorophenyl)-2-(2,2,2-trifluoroethoxy)ethyl]-3-[rac-(1R,4S)-norbornan-2-yl]urea] | 790 nM
4 | O=C(NCC1(c2cccc(Cl)c2)CC1)NC1COC2(CCCC2)C1 (stereo not shown) [Example 12, 1-[[1-(3-chlorophenyl)cyclopropyl]meth-yl]-3-(1-oxaspiro[4.4]nonan-3-yl)urea] | 2920 nM
5 | N#Cc1cccc(C2(CNC(=O)[C@H]3C[C@@H]3c3ccccc3)CCC(=O)O2)c1 (stereo partly drawn) [Example 88, (1S,2S)—N-[[2-(3-cyanophenyl)-5-oxo-tetrahydrofuran-2-yl]methyl]-2-phenyl-cyclopropanecarboxamide] | 200 nM
6 | O=C(NCC1(c2cccc(Cl)n2)CCO1)[C@H]1C[C@@H]1c1ccccc1 (stereo partly drawn) [Example 76, (1S,2S)—N-[[2-(6-chloro-2-pyridyl)oxetan-2-yl]methyl]-2-phenyl-cyclopropanecarboxamide] | 1740 nM
7 | N#Cc1cccc([C@]2(CNC(=O)C3CC4(C3)CC43CCC3)CCO2)c1 (stereo partly drawn) [Example 105, N-[[(2S)-2-(3-cyanophenyl)oxetan-2-yl]methyl]dispiro[3.0.3^5.1^4]nonane-7-carboxamide] | 910 nM
8 | CC(C)(C)[C@@H]1C[C@H]1C(=O)NC[C@@]1(c2cccc(C#N)c2)CCO1 (mixture of isomers) [Example 110, (1RS,2RS)-2-tert-butyl-N-[[(2S)-2-(3-cyanophenyl)oxetan-2-yl]methyl]cyclopropanecarboxamide] | 490 nM
9 | COC(CNC(=O)NC1CC2CCC1C2)c1cccc(Cl)c1 (stereo not shown) [Example 4, 1-[2-(3-chlorophenyl)-2-methoxy-ethyl]-3-norbornan-2-yl-urea] | 500 nM
10 | COC(C)(CNC(=O)[C@H]1C[C@@H]1c1ccccc1)c1cccc(Cl)c1 (mixture of isomers) [Example 1, rac-(1S,2S)-N-[2-(3-chlorophenyl)-2-methoxy-propyl]-2-phenyl-cyclopropanecarboxamide] | 170 nM
11 | O=C(NC/C(=C/CO)c1cccc(Cl)c1)NCC1CCCC1 [Example 78, 1-[(E)-2-(3-chlorophenyl)-4-hydroxy-but-2-enyl]-3-(cyclopentylmethyl)urea] | 6790 nM
12 | COc1cccc(NC(=O)NCC2(c3cccc(C)c3)OCCO2)c1 [Example 27, 1-(3-methoxyphenyl)-3-[[2-(m-tolyl)-1,3-dioxolan-2-yl]methyl]urea] | 3270 nM
13 | O=C(NCC1(c2ccnc(OC(F)F)c2)CCO1)[C@H]1C[C@@H]1c1ccccc1 (stereo partly drawn) [Example 67, (1S,2S)-N-[[2-[2-(difluoromethoxy)-4-pyridyl]oxetan-2-yl]methyl]-2-phenyl-cyclopropanecarboxamide] | 410 nM
14 | N#Cc1cccc(C2(CNC(=O)[C@H]3C[C@@H]3c3ccccc3)COC2)c1 [Example 85, (1S,2S)—N-[[3-(3-cyanophenyl)oxetan-3-yl]methyl]-2-phenyl-cyclopropanecarboxamide] | 1140 nM
15 | O=C(NCC1(c2ccnc(OC(F)F)c2)CCO1)[C@H]1CC12CCCCC2 (stereo in doubt) [Example 122, N-[[2-[2-(difluoromethoxy)-4-pyridyl]oxetan-2-yl]methyl]spiro[2.5]octane-2-carboxamide] | 390 nM
16 | N#CCO[C@H](CNC(=O)[C@H]1C[C@@H]1c1ccccc1)c1cccc(Cl)c1 [Example 70, (1S,2S)—N-[(2S)-2-(3-chlorophenyl)-2-(cyanomethoxy)ethyl]-2-phenyl-cyclopropanecarboxamide] | 650 nM
